Here are results for twelve molecules from US20250092065A1, “2-(INDAZOL-5-YL)-6-(PIPERIDIN-4-YL)-1,7-NAPHTHYRIDINE DERIVATIVES AND RELATED COMPOUNDS AS MODULATORS FOR SPLICING NUCLEIC ACIDS AND FOR THE TREATMENT OF PROLIFERATIVE DISEASES” (REMIX THERAPEUTICS INC., priority 2022, published 2025).

Read-outs that look alike come from different tables or passages of the source.

The test concerns MYB mRNA. The test is described as follows: RT-qPCR splicing assay, MYB mRNA canonical (CJ) and alternative (AJ) junction. Format: cell-based, human. The conditions noted are these: Homo sapiens; for AC50: MYB alternative junction mRNA, read-out: MYB AJ (increase in AJ mRNA, AC50). In short, it runs like this: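 A673 or K562 cells treated 24 h at 37 °C with an 11-point 3-fold dilution series (top 10 uM, DMSO ≤0.25%). Lysates went directly to one-step RT-qPCR quantifying canonical (CJ) and alternative-exon (AJ) junctions, normalized to GAPDH, GUSB or PPIA. Values from ΔΔCt versus DMSO, RQ = 2^(−ΔΔCt), expressed as percentage response.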
On the technique in general: In qPCR the cycle at which signal appears reflects the starting amount.

Where [1] appears, read: MYB canonical junction mRNA, RT-qPCR, read-out: MYB CJ (decrease in CJ mRNA levels, IC50).
The mark [2] stands for this setting: canonical junction qPCR panel, Table 4, read-out: MYB IC50 (decrease in CJ mRNA levels).

On to `Cc1nc2c(C)c(O)c(-c3ccc4nc(N5CC[C@H](N[C@H]6C[C@@H](F)C6)C5)ccc4n3)cc2o1` (stereo in doubt) [Compound 377], for which the AC50 (RT-qPCR) is under 100 nM. The IC50 under setting [1] was under 100 nM and the half-maximal inhibitory concentration (IC50) under setting [2] is under 100 nM.
`Cc1nc2cc(O)c(-c3ccc4nc(N5CC[C@@H](N[C@H]6C[C@@H](F)C6)C5)ccc4n3)cc2o1` (stereo in doubt) [Compound 395]: the AC50 (RT-qPCR) lay in the range of 100 to 1000 nM. Moreover, the IC50 runs as follows: under setting [1], 100 to 1000 nM; under setting [2], 100 to 1000 nM.
Take `Cc1nc2cc(O)c(-c3ccc4nc(N5CC[C@H](N[C@H]6C[C@@H](F)C6)C5)ccc4n3)cc2o1` (stereo in doubt) [Compound 396]: the AC50 (RT-qPCR) was in the range of 100 to 1000 nM. Besides, the IC50 was 100 to 1000 nM under setting [1] and 100 to 1000 nM under setting [2].
With `Cn1cc2cc(-c3ccc4nc(N5CC[C@@H](NC6(CF)CC6)C5)ccc4n3)c(O)cc2n1` [Compound 354, 5-{6-[(3R)-3-{[1-(fluoromethyl)cyclopropyl]amino}pyrrolidin-1-yl]-1,5-naphthyridin-2-yl}-2-methylindazol-6-ol], under “RT-qPCR”, the AC50 was under 100 nM. Also, the IC50 runs as follows: under setting [1], under 100 nM; under setting [2], under 100 nM.
Regarding `Cn1cc2cc(-c3ccc4nc(N5CC[C@H](NC6(CF)CC6)C5)ccc4n3)c(O)cc2n1` [Compound 355, 5-{6-[(3S)-3-{[1-(fluoromethyl)cyclopropyl]amino}pyrrolidin-1-yl]-1,5-naphthyridin-2-yl}-2-methylindazol-6-ol], the AC50 (RT-qPCR) is under 100 nM. In addition, the IC50 was under 100 nM under setting [1] and under 100 nM under setting [2].
Regarding `Cc1c(O)c(-c2ccc3nc(N4CCC(NC5(CF)CC5)C4)ccc3n2)cc2cn(C)nc12` (stereo not drawn) [Compound 360, 5-[6-(3-{[1-(fluoromethyl)cyclopropyl]amino}pyrrolidin-1-yl)-1,5-naphthyridin-2-yl]-2,7-dimethylindazol-6-ol], the AC50 (RT-qPCR) was under 100 nM. Also, the IC50 runs as follows: under setting [1], under 100 nM; under setting [2], under 100 nM.
Take `Cc1c(O)c(-c2cc(C(C)O)c3nc(N4CCNCC4)ccc3n2)cc2cn(C)nc12` (stereo not drawn) [Compound 364, 5-[4-(1-hydroxyethyl)-6-(piperazin-1-yl)-1,5-naphthyridin-2-yl]-2,7-dimethylindazol-6-ol]: the AC50 (RT-qPCR) lay in the range of 1000 to 10000 nM. In addition, the IC50 is 1000 to 10000 nM under setting [1] and 1000 to 10000 nM under setting [2].
As to `Cc1c(O)c(-c2ncc3nc(C4CCNCC4)ccc3n2)cc2cn(C)nc12` [Compound 370, 2,7-dimethyl-5-[6-(piperidin-4-yl)pyrido[3,2-d]pyrimidin-2-yl]indazol-6-ol], the AC50 (RT-qPCR) was 100 to 1000 nM. Further, the half-maximal inhibitory concentration (IC50) is 100 to 1000 nM under setting [1] and 100 to 1000 nM under setting [2].
For the molecule `Cc1nc2c(F)c(O)c(-c3ccc4nc(N5CC[C@H](N[C@H]6C[C@@H](F)C6)C5)ccc4n3)cc2o1` [Compound 374, 4-fluoro-2-methyl-6-[6-(3-{[(1r,3r)-3-fluorocyclobutyl]amino}pyrrolidin-1-yl)-1,5-naphthyridin-2-yl]-1,3-benzoxazol-5-ol], the AC50 (RT-qPCR) was under 100 nM. In addition, the IC50 runs as follows: under setting [1], under 100 nM; under setting [2], under 100 nM.
In the case of `CNC1CCN(c2ccc3nc(-c4cc(C#N)c5nc(C)cn5c4)ncc3n2)C1` (stereo not drawn) [Compound 382, 2-methyl-6-{6-[3-(methylamino)pyrrolidin-1-yl]pyrido[3,2-d]pyrimidin-2-yl}imidazo[1,2-a]pyridine-8-carbonitrile], the AC50 (RT-qPCR) is under 100 nM. Also, the IC50 under setting [1] is under 100 nM and the IC50 under setting [2] was under 100 nM.
Turning to `Cn1cc2cc(-c3ccc4nc(N5CC[C@H](NC6CC(F)(F)C6)C5)ccc4n3)c(O)cc2n1` [Compound 384], where the note is “RT-qPCR”, the concentration at half-maximal activity (AC50) lay in the range of 100 to 1000 nM. In addition, the IC50 runs as follows: under setting [1], 100 to 1000 nM; under setting [2], 100 to 1000 nM.
On to `Cn1cc2cc(-c3ccc4nc(N5CC[C@@H](NC6CC(F)(F)C6)C5)ccc4n3)c(O)cc2n1` [Compound 385], for which the AC50 (RT-qPCR) lay within 100 to 1000 nM. Besides, the IC50 by setting is: under setting [1], 100 to 1000 nM; under setting [2], 100 to 1000 nM.

As a reminder, the AC50 is the concentration giving half of the maximal activity seen. The term IC50 denotes the point on the concentration scale where inhibition reaches its midpoint.
